Paper PMC6114962, “A Phase Ib, open-label, dose-finding study of alpelisib in combination with paclitaxel in patients with advanced solid tumors” (Oncotarget, 2018)
Where two headings read alike, the source gives them in different places.

Assays:
[1] = system: patients with advanced solid tumors; assay: Phase Ib dose finding: dose-limiting toxicities and MTD of alpelisib QD plus paclitaxel; assay type: in vivo, human; details: with paclitaxel 80 mg/m^2 QW; BLRM with EWOC
Experimental: In the dose-finding phase, the primary objective was to determine the MTD and/or recommended Phase II dose (RP2D) of alpelisib QD when administered with paclitaxel 80 mg/m^2 QW in patients with advanced solid tumors, and the secondary objectives were to assess safety and tolerability and to characterize the pharmacokinetic (PK) profile.
Patients received oral alpelisib QD in 28-day cycles (300, 250, or 150 mg) and paclitaxel 80 mg/m^2 QW as a 1-hour (±15 minutes) IV infusion after standard premedication (per local standard practice). Patients received treatment until disease progression, unacceptable toxicity, patient decision, death, or discontinuation for any other reason. […]
An adaptive 5-parameter Bayesian logistic regression model (BLRM) with escalation with overdose control (EWOC) guided the dose-finding of each combination. […] Available data were analyzed after Cycle 1 per cohort of patients to decide the dose for the next cohort and/or determine the MTD/RP2D. […]

[2] = system: patients with advanced solid tumors; assay type: in vivo
Experimental: Patients received oral alpelisib QD in 28-day cycles (300, 250, or 150 mg) and paclitaxel 80 mg/m^2 QW as a 1-hour (±15 minutes) IV infusion after standard premedication (per local standard practice). Patients received treatment until disease progression, unacceptable toxicity, patient decision, death, or discontinuation for any other reason.
(§1) PK samples for alpelisib were collected from all patients.
(§2) Analysis sets were as follows: full analysis set (FAS), all patients who received at least one dose of alpelisib and/or paclitaxel; safety set, all patients who received at least one dose of alpelisib and/or paclitaxel and had at least one valid post-baseline safety assessment; dose-determining set (DDS), all patients from the safety set who during Cycle 1 either met the minimum exposure criterion and had sufficient safety evaluations, or experienced a DLT; and pharmacokinetic analysis set, all patients in the FAS who received at least one dose of alpelisib and/or paclitaxel and had at least one evaluable concentration measurement.

[3] = Plasma pharmacokinetics of paclitaxel and alpelisib in Cycle 1; assay type: in vivo, human; details: for Tmax / AUC(0-t) / Cmax / AUC(0-inf): human, plasma; for AUC(0-t): read-out: AUC0–24, geometric mean (CV%); for Cmax: read-out: Cmax, geometric mean (CV%); for AUC(0-inf): read-out: AUCinf, geometric mean (CV%)
Description: as §1, §2

[4] = system: patients with advanced solid tumors; details: cited from earlier work
[5] = system: patients; details: cited from earlier work
[6] = system: patients; set-up: method as in PMID 22184370; details: paclitaxel 80 mg/m^2 QW, 1-hour IV infusion; cited from earlier work
[7] = alpelisib 150 mg plus paclitaxel
[8] = alpelisib 250 mg plus paclitaxel
[9] = alpelisib 300 mg plus paclitaxel
[10] = po, oral alpelisib 150 mg QD + paclitaxel, C1D8
[11] = po, oral alpelisib 250 mg QD + paclitaxel, C1D8
[12] = po, oral alpelisib 300 mg QD + paclitaxel, C1D8
[13] = iv, 80 mg/m^2, paclitaxel 80 mg/m^2 IV, C1D1, alpelisib 150 mg + paclitaxel cohort
[14] = iv, 80 mg/m^2, paclitaxel 80 mg/m^2 IV, C1D1, alpelisib 250 mg + paclitaxel cohort
[15] = iv, paclitaxel 80 mg/m^2 IV, C1D8, alpelisib 150 mg + paclitaxel cohort
[16] = paclitaxel 80 mg/m^2 IV, C1D1, alpelisib 300 mg + paclitaxel cohort
[17] = paclitaxel 80 mg/m^2 IV, C1D8, alpelisib 250 mg + paclitaxel cohort

Question: For Cc1nc(NC(=O)N2CCC[C@H]2C(N)=O)sc1-c1ccnc(C(C)(C)C(F)(F)F)c1 [alpelisib], which “MTD of alpelisib when administered with paclitaxel” value [1] is on record?
Answer: Its value is 150 mg QD.

Question: What about the “rate of alpelisib dose interruption” value [2, 7] of the same compound?
Answer: Its value is 66.7%.

Question: What about the “rate of alpelisib dose reduction (at least one)” value (“rate of alpelisib dose reduction” below) [2, 7] of the same compound?
Answer: Its value is 22.2%.

Question: What about the “rate of alpelisib dose interruption” value [2, 8] of the same compound?
Answer: The value was 75.0%.

Question: And the “rate of alpelisib dose reduction” value [2, 8]?
Answer: The value was 50.0%.

Question: And the “rate of alpelisib dose interruption” value [2, 9]?
Answer: Its value is 66.7%.

Question: And the “rate of alpelisib dose reduction” value [2, 9]?
Answer: The value was 66.7%.

Question: What about the “impact of steady-state alpelisib exposure on paclitaxel metabolism” value ([3]; alpelisib 150–300 mg) of the same compound?
Answer: Its value is “no impact”.

Question: And the “Cmax and AUC0-24 after oral administration versus dose” value ([3]; alpelisib 150–300 mg QD)?
Answer: The value was “increased in a dose-dependent manner”.

Question: And the Tmax ([3]; oral, Cycle 1 Day 8, alpelisib 150–300 mg, read-out: Median time to maximum concentration (Tmax) across dose levels)?
Answer: The Tmax was 3.17 to 4.17 h.

Question: And the AUC(0-t) [3, 10]?
Answer: Its AUC(0-t) is 13800 ng·h/mL.

Question: And the Cmax [3, 10]?
Answer: The Cmax was 1390 ng/mL.

Question: And the Tmax ([3]; po, oral alpelisib 150 mg QD + paclitaxel, C1D8, read-out: Tmax, median (range))?
Answer: Its Tmax is 3.17 h.

Question: And the AUC(0-t) [3, 11]?
Answer: Its AUC(0-t) is 27700 ng·h/mL.

Question: And the Cmax [3, 11]?
Answer: Its Cmax is 3750 ng/mL.

Question: What about the Tmax ([3]; po, oral alpelisib 250 mg QD + paclitaxel, C1D8, read-out: Tmax, median (range)) of the same compound?
Answer: Its Tmax is 3.23 h.

Question: And the AUC(0-t) [3, 12]?
Answer: The AUC(0-t) was 37100 ng·h/mL.

Question: And the Cmax [3, 12]?
Answer: Its Cmax is 3000 ng/mL.

Question: And the Tmax ([3]; po, oral alpelisib 300 mg QD + paclitaxel, C1D8, read-out: Tmax, median (range))?
Answer: The Tmax was 4.17 h.

Question: What about the “Grade 3/4 AE: hyperglycemia” value ([4]; single-agent alpelisib 30–450 mg QD or 120–200 mg twice daily, N=134) of the same compound?
Answer: The value was 23.9%.

Question: What about the “all-grade treatment-related AE: hyperglycemia” value ([4]; single-agent alpelisib, N=134) of the same compound?
Answer: The value was 51.5%.

Question: And the “maximum tolerated dose (MTD), single agent” value ([4]; single-agent alpelisib, advanced solid tumors)?
Answer: Its value is 400 mg once daily (QD).

Question: What about the “hyperglycemia DLT during dose finding” value ([4]; single-agent alpelisib, seven of 68 evaluable patients) of the same compound?
Answer: The value was 10.3%.

Question: And the “dose from which preliminary anti-tumor activity was exhibited” value ([4]; single-agent alpelisib, solid tumors)?
Answer: Its value is ≥ 270 mg QD.

Question: And the “all-grade treatment-related AE: decreased appetite” value ([4]; single-agent alpelisib)?
Answer: Its value is 41.8%.

Question: And the “all-grade treatment-related AE: diarrhea” value ([4]; single-agent alpelisib)?
Answer: The value was 40.3%.

Question: And the “all-grade treatment-related AE: nausea” value ([4]; single-agent alpelisib)?
Answer: Its value is 50.0%.

Question: What about the “all-grade treatment-related AE: vomiting” value ([4]; single-agent alpelisib) of the same compound?
Answer: The value was 31.3%.

Question: What about the “MTD of alpelisib with nab-paclitaxel” value ([5]; Phase I study (N=10)) of the same compound?
Answer: Its value is “not reached”.

Question: What about the “recommended Phase II dose, alpelisib” value ([5]; plus nab-paclitaxel 100 mg/m^2 IV weekly) of the same compound?
Answer: The value was 350 mg daily.

Question: Which “plasma drug exposure (AUCinf and Cmax), Cycle 1 Day 1 versus Cycle 1 Day 8” value ([3]; absence versus presence of alpelisib, except Cmax at alpelisib 300 mg C1D8) does the source give for CC(=O)O[C@H]1C(=O)[C@@]2(C)[C@H]([C@H](OC(=O)c3ccccc3)[C@]3(O)C[C@H](OC(=O)[C@H](O)[C@@H](NC(=O)c4ccccc4)c4ccccc4)C(C)=C1C3(C)C)[C@]1(OC(C)=O)CO[C@@H]1C[C@@H]2O [paclitaxel] here?
Answer: The value was “comparable”.

Question: What about the AUC(0-inf) [3, 13] of the same compound?
Answer: The AUC(0-inf) was 4360 ng·h/mL.

Question: What about the Cmax [3, 13] of the same compound?
Answer: The Cmax was 2650 ng/mL.

Question: What about the AUC(0-inf) [3, 14] of the same compound?
Answer: Its AUC(0-inf) is 4320 ng·h/mL.

Question: And the Cmax [3, 14]?
Answer: The Cmax was 2770 ng/mL.

Question: And the Cmax ([3]; iv, 80 mg/m^2, paclitaxel 80 mg/m^2 IV, C1D1, alpelisib 300 mg + paclitaxel cohort)?
Answer: The Cmax was 2700 ng/mL.

Question: And the AUC(0-inf) [3, 15]?
Answer: Its AUC(0-inf) is 4370 ng·h/mL.

Question: And the Cmax [3, 15]?
Answer: Its Cmax is 2790 ng/mL.

Question: What about the Cmax ([3]; iv, paclitaxel 80 mg/m^2 IV, C1D8, alpelisib 250 mg + paclitaxel cohort) of the same compound?
Answer: Its Cmax is 2960 ng/mL.

Question: What about the AUC(0-inf) ([3]; iv, paclitaxel 80 mg/m^2 IV, C1D8, alpelisib 300 mg + paclitaxel cohort) of the same compound?
Answer: Its AUC(0-inf) is 4470 ng·h/mL.

Question: And the Tmax ([3]; iv, paclitaxel 80 mg/m^2 IV, C1D8, alpelisib 300 mg + paclitaxel cohort, read-out: Tmax, median (range))?
Answer: The Tmax was 0.75 h.

Question: What about the “Tmax, median (range)” value ([3]; paclitaxel 80 mg/m^2 IV, C1D1, alpelisib 150 mg + paclitaxel cohort) of the same compound?
Answer: The value was 1 (0.87–1.17) [8] hours.

Question: What about the “Tmax, median (range)” value ([3]; paclitaxel 80 mg/m^2 IV, C1D1, alpelisib 250 mg + paclitaxel cohort) of the same compound?
Answer: The value was 1 (0.45–1.05) [3] hours.

Question: And the “AUCinf, geometric mean (CV%)” value [3, 16]?
Answer: The value was 5000 (24) [5] ng·hr/ml.

Question: What about the “Tmax, median (range)” value [3, 16] of the same compound?
Answer: Its value is 1 (0.5–1.28) [5] hours.

Question: What about the “Tmax, median (range)” value ([3]; paclitaxel 80 mg/m^2 IV, C1D8, alpelisib 150 mg + paclitaxel cohort) of the same compound?
Answer: The value was 1 (0.5–1.07) [9] hours.

Question: And the “AUCinf, geometric mean (CV%)” value [3, 17]?
Answer: The value was 5000 (42.7) [2] ng·hr/ml.

Question: And the “Tmax, median (range)” value [3, 17]?
Answer: Its value is 0.8 (0.5–1.17) [3] hours.

Question: What about the “Cmax, geometric mean (CV%)” value ([3]; paclitaxel 80 mg/m^2 IV, C1D8, alpelisib 300 mg + paclitaxel cohort) of the same compound?
Answer: The value was 1250 (114) [6] ng/ml.

Question: What about the “all-grade AE: abdominal pain” value [6] of the same compound?
Answer: Its value is 33%.

Question: What about the “all-grade AE: alopecia” value [6] of the same compound?
Answer: The value was 36%.

Question: And the “all-grade AE: fatigue” value [6]?
Answer: The value was 47%.

Question: And the “all-grade AE: nausea” value [6]?
Answer: The value was 31%.

Question: And the “all-grade AE: peripheral neuropathy” value [6]?
Answer: Its value is 31%.
